Data published in patent publication US6740677B2, “Methods of treating benzodiazepine site (BZD-S) associated syndromes using 2′ hydroxyflavonoids” (priority 2002, dated 2004).

Legend:
[1] = molecular target: benzodiazepine binding site; test: Inhibition of [3H]-flunitrazepam by 2′ flavonoid derivatives (Example 7)
[2] = system: benzodiazepine site on GABAA receptor; test: GABA shift experiment, [3H]-Ro15-1788 competition with/without 10 μM GABA; assay type: binding, rat
[3] = molecular target: BZD-S; test: Radio-receptor binding assay, [3H]flunitrazepam, forebrain crude synaptosomal fraction (Example 3); design: species or system Sprague-Dawley rats; conditions: 1 nM [3H]flunitrazepam, rat forebrain; read-out: Inhibition of 3H-Flunitrazepam Ki
[4] = system: mice; test: Hole-board test; assay type: in vivo, Male ICR mice; design: Time spent head-dipping: unit not given here
[5] = system: mice; test: Elevated plus-maze test; assay type: in vivo, Male ICR mice
[6] = system: mice; test: Horizontal wire test; assay type: in vivo, Male ICR mice
[7] = molecular target: benzodiazepine site (BZD-S) of the GABAA receptor
[8] = system: benzodiazepine site (BZD-S) of the GABAA receptor; test: Radioligand receptor binding, displacement of [3H]-flunitrazepam (Example 1)
[9] = system: benzodiazepine site; conditions: 10^-4 M GABA, rat cerebral cortex membranes; cited from earlier work
[10] = system: benzodiazepine site; conditions: 10^-5 M muscimol, rat cerebellar membranes; cited from earlier work
[11] = 1 mg/kg oral, time cell empty (1 hour), 5-min test
[12] = 5 mg/kg oral, time cell empty (1 hour), 5-min test
[13] = 1 mg/kg oral, time cell empty, 5-min test
[14] = 5 mg/kg oral, time cell empty, 5-min test

COc1ccc2oc(-c3ccccc3N)cc(=O)c2c1 [2′-amino, 6-methoxyflavone]
IC50 [1]: 2000 nM

COc1c(O)c(OC)c2oc(-c3ccccc3O)cc(=O)c2c1O [Compound 1, 5,7,2′-trihydroxy-6,8-dimethoxyflavone]
GABA ratio ([2]; IC50 without GABA / IC50 with 10 μM GABA, 1 nM [3H]-Ro15-1788): 1.20 | Ki [3]: 1.1 nM | Number of head dips ([4]; 1 mg/kg oral, 20 min): 13.56 ± 1.81 | Number of rearings ([4]; 1 mg/kg oral, 20 min): 24.19 ± 3.53 | Time spent head-dipping ([4]; 1 mg/kg oral, 20 min): 15.38 ± 1.59 | Number of head dips ([4]; 1 mg/kg oral, 60 min): 15.75 ± 2.53 | Number of rearings ([4]; 1 mg/kg oral, 60 min): 23.94 ± 2.34 | Time spent head-dipping ([4]; 1 mg/kg oral, 60 min): 16.75 ± 3.78 | Number of head dips ([4]; 2 mg/kg oral, 20 min): 13.13 ± 1.96 | Number of rearings ([4]; 2 mg/kg oral, 20 min): 22.06 ± 3.17 | Time spent head-dipping ([4]; 2 mg/kg oral, 20 min): 14.56 ± 2.04 | Number of head dips ([4]; 2 mg/kg oral, 60 min): 14.50 ± 2.73 | Number of rearings ([4]; 2 mg/kg oral, 60 min): 22.13 ± 2.46 | Time spent head-dipping ([4]; 2 mg/kg oral, 60 min): 15.13 ± 2.20 | number of head-dips, time spent head-dipping and number of rearings ([4]; 4 mg/kg acute, twenty minutes after dosage): significant increase | Number of head dips ([4]; 4 mg/kg oral, 20 min): 20.25 ± 1.42 | Number of rearings ([4]; 4 mg/kg oral, 20 min): 29.54 ± 2.09 | Time spent head-dipping ([4]; 4 mg/kg oral, 20 min): 23.35 ± 1.28 | Number of head dips ([4]; 4 mg/kg oral, 60 min): 16.95 ± 1.33 | Number of rearings ([4]; 4 mg/kg oral, 60 min): 27.56 ± 2.79 | Time spent head-dipping ([4]; 4 mg/kg oral, 60 min): 17.56 ± 1.20 | Number of head dips ([4]; 8 mg/kg oral, 20 min): 18.46 ± 3.65 | Number of rearings ([4]; 8 mg/kg oral, 20 min): 25.26 ± 2.74 | Time spent head-dipping ([4]; 8 mg/kg oral, 20 min): 19.55 ± 4.23 | Number of head dips ([4]; 8 mg/kg oral, 60 min): 15.72 ± 1.86 | Number of rearings ([4]; 8 mg/kg oral, 60 min): 23.75 ± 3.18 | Time spent head-dipping ([4]; 8 mg/kg oral, 60 min): 15.06 ± 1.98 | sedative effects (decrease in head-dips, time head-dipping, rearings) ([4]; mouse, in vivo): lack of sedative effects | % of entries into open arms ([5]; 1 mg/kg oral, 20 min): 18.39 ± 3.14% | % of time spent in open arms ([5]; 1 mg/kg oral, 20 min): 14.28 ± 2.36% | % of entries into open arms ([5]; 1 mg/kg oral, 60 min): 18.51 ± 3.34% | % of time spent in open arms ([5]; 1 mg/kg oral, 60 min): 15.80 ± 3.29% | % of entries into open arms ([5]; 2 mg/kg oral, 20 min): 18.30 ± 2.78% | % of time spent in open arms ([5]; 2 mg/kg oral, 20 min): 15.74 ± 3.00% | % of entries into open arms ([5]; 2 mg/kg oral, 60 min): 16.91 ± 2.49% | % of time spent in open arms ([5]; 2 mg/kg oral, 60 min): 16.84 ± 1.99% | anxiolysis compared to either dosage of diazepam ([5]; 4.0 mg/kg): more anxiolysis | % of entries into open arms ([5]; 4 mg/kg oral, 20 min): 32.28 ± 2.91 % | % of time spent in open arms ([5]; 4 mg/kg oral, 20 min): 33.55 ± 2.09 % | % of entries into open arms ([5]; 4 mg/kg oral, 60 min): 19.90 ± 1.63% | % of time spent in open arms ([5]; 4 mg/kg oral, 60 min): 15.69 ± 2.09% | % of entries into open arms ([5]; 8 mg/kg oral, 20 min): 28.90 ± 2.23 % | % of time spent in open arms ([5]; 8 mg/kg oral, 20 min): 25.62 ± 1.73 % | % of entries into open arms ([5]; 8 mg/kg oral, 60 min): 18.67 ± 2.24% | % of time spent in open arms ([5]; 8 mg/kg oral, 60 min): 16.76 ± 2.19% | time spent in open arms and entries made into open arms vs control ([5]; 4.0 and 8.0 mg/kg, twenty minutes after dosage): significant increase | ability to grasp the wire ([6]; K36 dosage regimen 1.0-8.0 mg/kg): remained unchanged | Ki [7]: 1.1 nM | fold difference in binding affinity ([8]; Compound 1 vs Compound 6 (K1)): 260 fold | IC50 ([8]; read-out: Inhibition of 3H-Flunitrazepam IC50, 1 nM [3H]-flunitrazepam, rat whole brain synaptosomal membrane): 1.5 nM

CN1C(=O)CN=C(c2ccccc2)c2cc(Cl)ccc21 [Diazepam, reference compound]
GABA ratio (IC50 ratio without GABA/with GABA), column C ([2]; 10^-5 M GABA, rat cerebral cortex membranes): 2.0 | Ki [3]: 9.5 nM | Number of head dips [4, 11]: 19.12 ± 2.92 | Number of rearings [4, 11]: 25.13 ± 2.85 | Time spent head-dipping [4, 11]: 22.75 ± 2.59 | Number of head dips [4, 12]: 17.25 ± 1.89 | Number of rearings [4, 12]: 32.16 ± 3.15 | Time spent head-dipping [4, 12]: 19.50 ± 2.33 | sedative effects (decrease in head-dips, time head-dipping, rearings) ([4]; at the dosage regimen): lack of sedative effects | % of entries into open arms [5, 13]: 26.48 ± 2.83 % | % of time spent in open arms [5, 13]: 28.71 ± 2.27 % | % of entries into open arms [5, 14]: 29.85 ± 1.29 % | % of time spent in open arms [5, 14]: 32.24 ± 1.56 % | time spent in open arms and entries made into open arms vs control ([5]; 1.0 and 5.0 mg/kg): dose dependent increase | ability to grasp the wire compared to control ([6]; 5.0 mg/kg): significant impairment | GABA ratio (IC50 ratio without GABA/with GABA), column A [9]: 2.9 | GABA ratio (IC50 ratio without GABA/with GABA), column B [10]: 2.3
